Data: article PMC4314249, “Characterizing the Peroxisome Proliferator-Activated Receptor (PPARγ) Ligand Binding Potential of Several Major Flame Retardants, Their Metabolites, and Chemical Mixtures in House Dust” (Environmental Health Perspectives, 2014)
Like-named read-outs stand apart in the source and are kept apart here. Each block holds one molecule with its values, some of them ahead of it.

Legend:
[1] = target: T1, human PPARγ ligand-binding domain (Homo sapiens, UniProt P37231); assay: PolarScreen PPARγ-Competitor fluorescence polarization ligand binding assay
T1 construct: The kit uses the human-derived recombinant PPARγ LBD tagged with an N-terminal GST-tag; purchased Invitrogen
T1 sequence (P37231 238-503 limits assumed): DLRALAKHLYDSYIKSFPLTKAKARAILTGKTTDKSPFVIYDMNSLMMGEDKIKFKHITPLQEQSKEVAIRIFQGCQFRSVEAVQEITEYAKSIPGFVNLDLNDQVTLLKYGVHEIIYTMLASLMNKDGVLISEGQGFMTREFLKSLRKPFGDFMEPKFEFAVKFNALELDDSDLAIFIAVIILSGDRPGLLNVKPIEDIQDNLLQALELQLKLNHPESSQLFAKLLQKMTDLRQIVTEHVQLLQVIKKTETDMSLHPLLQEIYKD

PPARγ2 = test system: PPARγ2; design: method as in Suzuki et al. (2013); details: U2OS reporter assay; ref Suzuki et al. (2013); cited from earlier work
PPARγ LBD = target: T2, PPARγ LBD (Homo sapiens, UniProt P37231); assay: PPARγ competitive binding after bioactivation with rat liver S9 fraction (active vs inactive S9); details: 100 μM, n = 3, rat liver S9
T2 construct: The kit uses the human-derived recombinant PPARγ LBD tagged with an N-terminal GST-tag; purchased Invitrogen
T2 sequence (P37231 238-503 limits assumed): T1 sequence (P37231 238-503 limits assumed)

[2] = MEHP formation on incubation of dust with S9 fraction; format: in vitro ADME, Sprague-Dawley rats
Experimental: Bioactivation of dust samples. We assessed the influence of biotransformation on ligand binding activity by incubating dust extracts in pooled liver S9 fractions prepared from Sprague-Dawley rats [Rat (Sprague-Dawley) S9 Fractions; Gibco, Grand Island, NY). Bioactivation was assessed in 7 of the 23 dust samples (1 dust sample was tested in triplicate, while the others were tested once because of dust mass limitations) and in SRM 2585 (n = 3). The 7 dust samples were from groups A (samples 5, 7, and 8), B (samples 9 and 10), and C (samples 11 and 12). The influence of biotransformation was also investigated using pure chemical standards. DEHP (100 μM) and a mixture (MIX) containing 1 μM each of FM550, isopropylated triaryl phosphate (ITP), BDE-47, BDE-99, and DEHP were evaluated for binding activity before and after bioactivation. For a detailed description of the method, see Supplemental Material, “Bioactivation of Dust Samples” and Figure S3. Briefly, dust samples were bioactivated by incubation with an S9 fraction (1 mg protein/mL), extracted, and cleaned by dextran-assisted liquid–liquid extraction and phenolic extraction. […]
For each dose level of tested compounds, triplicate samples were prepared and each well was read five times in the plate reader. […]

[3] = calculated from IC50 by equation 3, read-out: Kd (dissociation constant)
[4] = read-out: Kd (dissociation constant)

Kd [1, 3]: > 130 µM
IC50 ([1]; read-out: IC50): > 250 µM
SMILES: Oc1c(F)cc(F)cc1F [2,4,6-TFP, 2,4,6-trifluorophenol]

SMILES: CC(C)(c1cc(Cl)c(O)c(Cl)c1)c1cc(Cl)c(O)c(Cl)c1 [TCBPA, 3,3´,5,5´-tetrachlorobisphenol A]
Relative potency [1]: 0.0444
IC50 ([1]; read-out: IC50): 5.18 µM
Kd [1, 4]: 2.7 µM

SMILES: Oc1cc(Oc2cc(Br)c(Br)cc2Br)c(Br)cc1Br [5´-OH-BDE-99]
Relative potency [1]: 0.0077
IC50 ([1]; read-out: IC50): 30 µM
Kd [1, 4]: 15.7 µM

SMILES: Oc1cc(Br)cc(Br)c1Oc1ccc(Br)cc1Br [6-OH-BDE-47]
PPARγ binding (in words) [1]: not active ligands
Relative potency [1]: < 0.023
IC50 ([1]; read-out: IC50): > 10 µM
Kd [1, 4]: > 5.22 µM

SMILES: Oc1cc(Cl)ccc1Oc1ccc(Cl)cc1Cl [Triclosan, triclosan]
IC50 [1]: 12.5 µM
Kd [1]: 6.52 µM
Relative potency [1]: 0.0184

SMILES: O=P(Oc1ccccc1)(Oc1ccccc1)Oc1ccccc1 [TPP, triphenyl phosphate]
IC50 [1]: 40 µM
Kd [1]: 20.9 µM
Relative potency [1]: 0.0058

SMILES: CCCCC(CC)COC(=O)c1c(Br)c(Br)c(Br)c(Br)c1C(=O)OCC(CC)CCCC (centres unmarked) [TBPH, bis(2-ethylhexyl) tetrabromophthalate]
IC50 [1]: > 250 µM
Kd [1]: > 130 µM
PPARγ binding (in words) [1]: did not show any binding activity

SMILES: Oc1c(Br)cc(Br)cc1Br [2,4,6-TBP, 2,4,6-Tribromophenol]
IC50 [1]: 36.3 µM
Kd [1]: 18.9 µM
Relative potency [1]: 0.0063

SMILES: Oc1c(Cl)cc(Cl)cc1Cl [2,4,6-TCP, 2,4,6,-trichlorophenol]
Relative potency [1]: 0.0023
IC50 ([1]; read-out: IC50): 100 µM
Kd [1, 4]: 52.2 µM

SMILES: CC(C)(c1ccc(O)cc1)c1ccc(O)cc1 [BPA, bisphenol A]
PPARγ binding (in words) [1]: did not exhibit any binding
IC50 ([1]; read-out: IC50): > 250 µM
Kd [1, 4]: > 130 µM

SMILES: Brc1ccc(Oc2ccc(Br)cc2Br)c(Br)c1 [BDE-47, 2,2´,4,4´-tetrabromodiphenyl ether]
IC50 ([1]; read-out: IC50): > 12 µM
Kd [1, 4]: > 6.25 µM
5% induction concentration (PPARγ2): 10 µM

SMILES: [Cl][Sn]([c]1ccccc1)([c]1ccccc1)[c]1ccccc1 [TPT, triphenyltin chloride]
Relative potency [1]: 0.1337
IC50 ([1]; read-out: IC50): 1.72 µM
Kd [1, 4]: 0.9 µM

SMILES: CCCCC(CC)COC(=O)c1cc(Br)c(Br)c(Br)c1Br (centres unmarked) [TBB, 2-ethylhexyl-2,3,4,5-tetrabromobenzoate]
IC50 [1]: > 250 µM
Kd [1]: > 130 µM
PPARγ binding (in words) [1]: did not show any binding activity

SMILES: CCCCOCCOP(=O)(OCCOCCCC)OCCOCCCC [TBEP, tris(2-butoxyethyl) phosphate]
IC50 [1]: 103 µM
Kd [1]: 53.7 µM
Relative potency [1]: 0.0022

SMILES: Brc1ccc(Oc2cc(Br)c(Br)cc2Br)c(Br)c1 [BDE–99, 2,2´,4,4´,5-pentabromodiphenyl ether]
PPARγ binding (in words) [1]: no binding was observed
IC50 ([1]; read-out: IC50): > 250 µM
Kd [1, 4]: > 130 µM

SMILES: Oc1cc(Oc2ccc(Br)cc2Br)c(Br)cc1Br [5-OH-BDE-47]
Relative potency [1]: 0.0744
IC50 ([1]; read-out: IC50): 3.09 µM
Kd [1, 4]: 1.61 µM

SMILES: Oc1c(Br)ccc(Oc2ccc(Br)cc2Br)c1Br [3-OH-BDE-47]
Relative potency [1]: 0.9583
IC50 ([1]; read-out: IC50): 0.24 µM
Kd [1, 4]: 0.13 µM

SMILES: O=C(O)c1cc(Br)c(Br)c(Br)c1Br [TBBA, 2,3,4,5-tetrabromo benzoic acid]
IC50 [1]: 42 µM
Kd [1]: 22.1 µM
Relative potency [1]: 0.0055

SMILES: CCCCC(CC)COC(=O)c1ccccc1C(=O)OCC(CC)CCCC (centres unmarked) [DEHP, di-(2-ethylhexyl) phthalate]
Kd [1, 3]: > 130 µM
IC50 ([1]; read-out: IC50): > 250 µM
change of PPARγ binding potency after bioactivation (in words) (PPARγ LBD): slightly increased

SMILES: CCCCC(CC)COC(=O)c1ccccc1C(=O)O (centres unmarked) [MEHP, mono(2-ethylhexyl) phthalate]
MEHP formation rate [2]: approximately 70 pmol/mg protein/min

SMILES: Oc1c(I)cc(I)cc1I [2,4,6-TIP, 2,4,6-triiodophenol]
IC50 [1]: 1.84 µM
Kd [1]: 0.96 µM
Relative potency [1]: 0.1250

SMILES: Oc1cc(Br)cc(Br)c1Oc1cc(Br)c(Br)cc1Br [6´-OH-BDE-99]
PPARγ binding (in words) [1]: not active ligands
Relative potency [1]: < 0.0046
IC50 ([1]; read-out: IC50): > 50 µM
Kd [1, 4]: > 26.1 µM

SMILES: O=P(O)(Oc1ccccc1)Oc1ccccc1 [DPP, diphenyl phosphate]
IC50 [1]: 627 µM
Kd [1]: 327 µM
Relative potency [1]: 0.0004
